From patent US20240173289A1, “USE OF OXYMETHYL-MODIFIED DERIVATIVE OF QUERCETIN IN PREPARATION OF DRUG FOR INHIBITING TUMOR CELL PROLIFERATION” (ZHEJIANG UNIVERSITY, priority 2021, published 2024)

Experiments:
Assay type in all cases: cell-based
[1] = tested on: human normal gastric cell line GES; assay: in vitro proliferation inhibition on normal cells (CCK-8); details: 48 h, read-out: half-inhibitory concentration
Description: (§1) Osteosarcoma cell line 143B, HOS, and U2, liver cancer cell line HepG2, breast cancer cell line MDA-MB-231 and T47D, gastric cancer cell line AGS, BGC-823, and SGC-7901, cervical cancer cells Hela, lung cancer cells A549, intestinal cancer cells Caco2, mouse glioma cells BV-2, human prostate cancer cells PC3, human thyroid cancer cell line BCPAP, human normal liver cell line L02, human normal gastric cell line GES, human umbilical vein epithelial cells HUVEC, and human embryonic lung fibroblasts WI-38 were cultured in a DMEM medium containing 10% fetal bovine serum and 1×HEPES in a humid incubator (37° C., 5% CO2). The cells were passaged with trypsin-EDTA in logarithmic phase. Certain density of cells (AGS, T47D, Caco2, BCPAP, GES, HUVEC 1×10^5 cells per well; HepG2, MDA-MB-231, BGC-823, A549, PC3, L02 8×10^4 cells per well; 143B, HOS, U2, SGC-7901, Hela, BV-2, 5×10^4 cells per well; WI-38, 3×10^5 cells per well) were inoculated in a 96-well plate, and cultured for 24 h before treatment. After replacing a fresh medium, 12.5 mg/L to 400 mg/L, of quercetin 3,3′-dimethyl ether dissolved with DMSO was added into a medium (a final volume ratio was 0.1%, and the DMSO was used as a […]). After incubation for 48 h, a complete medium was replaced with a serum-free medium containing 10% CCK-8 reagent. The absorbance at 450 nm and 620 nm was measured separately after the cells were incubated for 1 h. Each experiment was repeated three times independently.

[2] = tested on: human embryonic lung fibroblasts WI-38; assay: as above; details: 48 h, read-out: half-inhibitory concentration
Description: as §1

[3] = tested on: human normal liver cell line L02; assay: as above; details: 48 h, read-out: half-inhibitory concentration
Description: as §1

[4] = tested on: human umbilical vein epithelial cells HUVEC; assay: as above; details: 48 h, read-out: half-inhibitory concentration
Description: as §1

[5] = tested on: breast cancer cells MDA-MB-231; assay: scratch closure test; details: 2 mg/L, 24 h
Procedure: (§2) Cells with a certain density (6×10^5 cells per mL for AGS, T47D, Caco2, BCPAP, GES, HUVEC; 5×10^5 cells per mL for HepG2, MDA-MB-231, BGC-823, A549, PC3, L02; 3×10^5 cells per mL for 143B, HOS, U2, SGC-7901, Hela, BV-2; and 1.8×10^6 cells per mL for WI-38) were spread on a 6-well plate (1 mL per well), added with a DMEM medium containing 10% fetal calf serum, and cultured overnight to form a monolayer of cells. A horizontal scratch was scratched on the monolayer of cells with a pipette tip of 200 μL, washed with PBS 3 times, added into a DMEM medium containing 10% fetal bovine serum, and then added with corresponding dosages of a quercetin 3,3′-dimethyl ether solution (the dosage of osteosarcoma cells was 143B: 4 mg/L, HOS: 4 mg/L, U2: 10 mg/L; the dosage of breast cancer cells was MDA-MB-231: 2 mg/L, T47D: 3 mg/L; the dosage of gastric cancer cells was SGC7901: 6 mg/L, BGC823: 5 mg/L, AGS: 3 mg/L; the dosage of cervical cancer Hela cells was 2 mg/L; the dosage of lung cancer cell A549 was 3 mg/L; the dosage of intestinal cancer cells Caco2 was 4 mg/L; the dosage of mouse glioma BV2 was 4 mg/L; the dosage of human prostate cancer cells PC3 was 6 mg/L; and the dosage of human thyroid cancer cells BCPAP was 2 mg/L), while DMSO was used as a solvent control, and then incubated for 24 h. A scratch width and a measurement width were determined under a microscope, and a scratch closure ratio was calculated as follows: scratch closure ratio=(scratch width−measurement width)/scratch width×100%. Scratch inhibition ratio=(scratch closure ratio of control group−scratch closure ratio of treatment group)/scratch closure ratio of control group×100%.

gastric cancer cells AGS = assay: scratch closure test; details: 3 mg/L, 24 h
Procedure: as §2

[6] = tested on: intestinal cancer cells Caco2; assay: scratch closure test; details: 24 h
Procedure: as §2

mouse glioma BV2 = assay: scratch closure test; details: 4 mg/L, 24 h
Procedure: as §2

[7] = tested on: gastric cancer cells SGC-7901; assay: scratch closure test; details: 24 h
Procedure: as §2

[8] = tested on: cervical cancer Hela cells; assay: scratch closure test; details: 2 mg/L, 24 h
Procedure: as §2

osteosarcoma cells HOS = assay: scratch closure test; details: 4 mg/L, 24 h, versus control group, read-out: inhibition rate of scratch closure
Procedure: as §2

[9] = tested on: human thyroid cancer cells BCPAP; assay: scratch closure test; details: 2 mg/L, 24 h
Procedure: as §2

[10] = tested on: human prostate cancer cells PC3; assay: scratch closure test; details: 6 mg/L, 24 h
Procedure: as §2

osteosarcoma cells 143B = assay: scratch closure test; details: Homo sapiens, 4 mg/L, 24 h, versus control group, read-out: inhibition rate of scratch closure
Procedure: as §2

breast cancer cells T47D = assay: scratch closure test; details: 3 mg/L, 24 h
Procedure: as §2

[11] = tested on: gastric cancer cells BGC-823; assay: scratch closure test; details: Homo sapiens, BGC823, 5 mg/L, 24 h, versus control group, read-out: inhibition rate of scratch closure
Procedure: as §2

lung cancer cell A549 = assay: scratch closure test; details: Homo sapiens, 3 mg/L, 24 h, versus control group, read-out: inhibition rate of scratch closure
Procedure: as §2

osteosarcoma cells U2 = assay: scratch closure test; details: 10 mg/L, 24 h
Procedure: as §2

[12] = Homo sapiens, versus control group, read-out: inhibition rate of scratch closure
[13] = versus control group, read-out: inhibition rate of scratch closure

Question: `COc1cc(-c2oc3cc(O)cc(O)c3c(=O)c2OC)ccc1O` [Quercetin 3,3′-dimethyl ether, quercetin 3,3′-dimethyl ether] was tested. Which IC50 [1] did it give?
Answer: > 100 mg/L

Question: What about the IC50 [2] of the same compound?
Answer: > 100 mg/L

Question: What about the IC50 [3] of the same compound?
Answer: > 100 mg/L

Question: And the IC50 [4]?
Answer: > 100 mg/L

Question: What about the “Treatment scratch closed %” value [5] of the same compound?
Answer: 16.72 ± 3.87 %

Question: What about the inhibition at 2 µg/mL [5, 12] of the same compound?
Answer: 82%

Question: And the “Treatment scratch closed %” value (gastric cancer cells AGS)?
Answer: 31.67 ± 3.39 %

Question: And the inhibition at 3 µg/mL (gastric cancer cells AGS; [13])?
Answer: 60.9%

Question: What about the “Treatment scratch closed %” value ([6]; 4 mg/L) of the same compound?
Answer: 28.37 ± 10.21 %

Question: And the inhibition at 4 µg/mL ([6]; Homo sapiens, Caco-2, 4 mg/L, versus control group, read-out: inhibition rate of scratch closure)?
Answer: 66.6%

Question: And the “Treatment scratch closed %” value (mouse glioma BV2; BV-2)?
Answer: 21.17 ± 8.55 %

Question: What about the inhibition at 4 µg/mL (mouse glioma BV2; Mus musculus, BV2, versus control group, read-out: inhibition rate of scratch closure) of the same compound?
Answer: 75.2%

Question: What about the “Treatment scratch closed %” value ([7]; 6 mg/L) of the same compound?
Answer: 25.05 ± 10.1 %

Question: What about the inhibition at 6 µg/mL ([7]; Homo sapiens, SGC7901, 6 mg/L, versus control group, read-out: inhibition rate of scratch closure) of the same compound?
Answer: 72%

Question: And the “Treatment scratch closed %” value [8]?
Answer: 37.42 ± 1.62 %

Question: What about the inhibition at 2 µg/mL [8, 12] of the same compound?
Answer: 54%

Question: And the inhibition at 4 µg/mL (osteosarcoma cells HOS)?
Answer: 57.6%

Question: And the “Treatment scratch closed %” value [9]?
Answer: 30.31 ± 5.21 %

Question: What about the inhibition at 2 µg/mL [9, 12] of the same compound?
Answer: 64.7%

Question: What about the “Treatment scratch closed %” value [10] of the same compound?
Answer: 24.76 ± 5.55 %

Question: And the inhibition at 6 µg/mL [10, 12]?
Answer: 70.9%

Question: What about the inhibition at 4 µg/mL (osteosarcoma cells 143B) of the same compound?
Answer: 54.3%

Question: What about the “Treatment scratch closed %” value (breast cancer cells T47D) of the same compound?
Answer: 31.83 ± 6.01 %

Question: And the inhibition at 3 µg/mL (breast cancer cells T47D; [12])?
Answer: 64.1%

Question: What about the inhibition at 5 µg/mL [11] of the same compound?
Answer: 73.7%

Question: And the inhibition at 3 µg/mL (lung cancer cell A549)?
Answer: 69.6%

Question: And the “Treatment scratch closed %” value (osteosarcoma cells U2)?
Answer: 27.67 ± 6.81 %

Question: And the inhibition at 10 µg/mL (osteosarcoma cells U2; [13])?
Answer: 70.5%
